Data from article PMC10458862, “Binding Specificity of a Novel Cyclo/Maltodextrin-Binding Protein and Its Role in the Cyclodextrin ABC Importer System from Thermoanaerobacterales” (Molecules, 2023).
Read-outs that look alike come from different tables or passages of the source. Marks after values point to notes of the source that are not given here.

Key:
EcoMBP = conditions: cited from earlier work
AcyMBP = biological target: AcyMBP; set-up: method as in PMID 11053372; conditions: cited from earlier work
MdxE [1] = biological target: T1, MdxE (Thermoanaerobacter mathranii subsp. mathranii, UniProt A0ABM5LRQ5); assay: ITC measurements of MdxE-ligand binding; set-up: species or system Thermoanaerobacter mathranii subsp. mathranii A3
T1 sequence (A0ABM5LRQ5 entry or part of it): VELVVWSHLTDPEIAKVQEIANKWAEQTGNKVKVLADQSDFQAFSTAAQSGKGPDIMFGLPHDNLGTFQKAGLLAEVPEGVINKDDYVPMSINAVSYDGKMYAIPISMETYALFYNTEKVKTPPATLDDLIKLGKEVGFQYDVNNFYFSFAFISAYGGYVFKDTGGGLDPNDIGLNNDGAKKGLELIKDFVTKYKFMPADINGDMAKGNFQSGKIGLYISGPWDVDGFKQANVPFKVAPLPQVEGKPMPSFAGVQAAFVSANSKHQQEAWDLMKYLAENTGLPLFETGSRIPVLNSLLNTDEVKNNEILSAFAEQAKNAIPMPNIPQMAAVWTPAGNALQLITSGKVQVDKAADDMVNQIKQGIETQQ
Protocol: To assess the binding affinities of MdxE toward different linear dextrins and CDs for the CM-CD pathway, functional experiments of MdxE-ligand complex formation were performed using isothermal titration calorimetry (ITC) to determine the dissociation constant (Kd) and enthalpy (ΔH) for ligand binding, as well as the Gibbs free energy (ΔG) contribution to the binding (Figure 3).
Purified MdxE at 4 μM was titrated with 0.8 mM CDs and linear dextrins using a VP-ITC calorimeter (Cytiva) at 55 °C. In all measurements, the sample cell and syringe were filled with protein and ligand solution, respectively, and the reference cell was filled with ultrapure water. The stirring speed of the sample syringe during measurements was 250 rpm. After baseline stabilization and an initial injection of 2 µL, 25 successive injections of 11 µL were carried out with a 5 min equilibration period between injections. Since both protein and ligands were in buffer C, the heat of dilution was neglected in the experiments. The resulting data were analyzed in triplicate (n = 3) using the Origin 7 ITC analysis v7.0 software from Microcal by fitting the titration curves to a single binding site model.

TvuCMBP = biological target: TvuCMBP; set-up: method as in PMID 17371546; conditions: ND = not detected; cited from earlier work
MdxE [2] = biological target: T1, MdxE; assay: ANS fluorescence determination of protein surface hydrophobicity (Ho) of MdxE-ligand complexes; set-up: species or system Thermoanaerobacter mathranii subsp. mathranii A3; conditions: for Ho (protein surface hydrophobicity, slope of RFU versus MdxE concentration): MdxE 2–14 µM, 350 µM ligand, 20 µM ANS, λmax = 485 nm, letters = Tukey groups (p < 0.05)
Protocol: To evaluate the switching from an open to a closed form of productive MdxE-ligand complexes obtained with the sugars listed in Table 1, changes in the protein surface hydrophobicity (Ho) of MdxE-ligand complexes using the fluorescent probe 8-anilinonaphthalene-1-sulfonate (ANS) were determined (Figure 4).
The changes in H0 associated with the open-to-closed conformational changes of productive MdxE-ligand complexes were determined based on the method described previously, using a Nanodrop ND-3300 fluorospectrometer (Thermo Fisher, Waltham, MA, USA) controlled by ND-3300 v2.8.0 software with ANS as a fluorescence probe at an excitation wavelength of 365 nm and 400–600 nm as the range for emission scan. The fluorescent response was measured in RFU using buffer C for all solutions. […] For H0 measurements, MdxE-ligand complexes were heated at 55 °C for 10 min. Subsequently, ANS was added to form the (MdxE-ligand)-ANS complexes, and the solutions were heated again at 55 °C for 3 min; then, the solutions were cooled to room temperature. Data were analyzed in triplicate (n = 3), and H0 was estimated as the slope of the linear curve fitted for RFU versus MdxE concentrations plotted at the maximum emission wavelength (λ = 485 nm) using the emtrends() function from emmeans package in R [58, 59]. A Tukey’s test (α = 0.05) for multiple comparisons was performed to determine significant differences in H0 between CDs and linear dextrins tested. All fluorescence measurements were made at 22 °C.

CymE = biological target: CymE; set-up: method as in PMID 9573146; conditions: ND = not detected; cited from earlier work
[3] = ITC, 55 °C, 4 μM MdxE titrated with 0.8 mM ligand, single binding site model, n = 3, ND = not detected, read-out: Kd MdxE

Compound	Kd (EcoMBP)	Kd (AcyMBP)	Kd MdxE (MdxE [1]; ITC, 55 °C, 4 μM MdxE titrated with 0.8 mM ligand, single binding site model, n = 3, ND = not detected)	Kd (TvuCMBP)	Ho (protein surface hydrophobicity, slope of RFU versus MdxE concentration) (MdxE [2])	MdxE-ligand complex formation by fluorescence measurements (MdxE [2]; fluorescence analysis with ANS)	Kd (MdxE [1]; [3])	ΔG (MdxE [1]; ITC, 55 °C, ND = not detected)	ΔH (MdxE [1]; ITC, 55 °C, ND = not detected)	Kd (CymE)	Kd (MdxE [1])	open-to-closed conformational change of MdxE (MdxE [2]; fluorescence analysis with ANS)
OC[C@H]1O[C@H](O[C@H]2[C@H](O)[C@@H](O)C(O)O[C@@H]2CO)[C@H](O)[C@@H](O)[C@@H]1O (mixture of isomers) [G2, maltose]	1000 nM	1500 nM	no binding interaction was observed	410 nM	15.1 ^d	no MdxE-G2 complex formation was observed	–	–	–	–	–	–
OC[C@H]1O[C@H](O[C@H]2[C@H](O)[C@@H](O)[C@@H](O[C@H]3[C@H](O)[C@@H](O)C(O)O[C@@H]3CO)O[C@@H]2CO)[C@H](O)[C@@H](O)[C@@H]1O (mixture of isomers) [G3, maltotriose]	200 nM	–	–	970 nM	24.3 ^c	–	3020 nM	-8.50 kcal/mol	-8.64 kcal/mol	–	–	–
OC[C@H]1O[C@@H]2O[C@H]3[C@H](O)[C@@H](O)[C@@H](O[C@H]4[C@H](O)[C@@H](O)[C@@H](O[C@H]5[C@H](O)[C@@H](O)[C@@H](O[C@H]6[C@H](O)[C@@H](O)[C@@H](O[C@H]7[C@H](O)[C@@H](O)[C@@H](O[C@H]1[C@H](O)[C@H]2O)O[C@@H]7CO)O[C@@H]6CO)O[C@@H]5CO)O[C@@H]4CO)O[C@@H]3CO [α-CD]	–	–	–	730 nM	37.1 ^a	–	–	–	-6.83 kcal/mol	20 nM	610 nM	solely triggered
OC[C@H]1O[C@@H]2O[C@H]3[C@H](O)[C@@H](O)[C@@H](O[C@H]4[C@H](O)[C@@H](O)[C@@H](O[C@H]5[C@H](O)[C@@H](O)[C@@H](O[C@H]6[C@H](O)[C@@H](O)[C@@H](O[C@H]7[C@H](O)[C@@H](O)[C@@H](O[C@H]8[C@H](O)[C@@H](O)[C@@H](O[C@H]1[C@H](O)[C@H]2O)O[C@@H]8CO)O[C@@H]7CO)O[C@@H]6CO)O[C@@H]5CO)O[C@@H]4CO)O[C@@H]3CO [β-CD]	1000 nM	–	–	1200 nM	41.8 ^b	–	2040 nM	–	-5.28 kcal/mol	140 nM	–	solely triggered
OC[C@H]1O[C@@H]2O[C@H]3[C@H](O)[C@@H](O)[C@@H](O[C@H]4[C@H](O)[C@@H](O)[C@@H](O[C@H]5[C@H](O)[C@@H](O)[C@@H](O[C@H]6[C@H](O)[C@@H](O)[C@@H](O[C@H]7[C@H](O)[C@@H](O)[C@@H](O[C@H]8[C@H](O)[C@@H](O)[C@@H](O[C@H]9[C@H](O)[C@@H](O)[C@@H](O[C@H]1[C@H](O)[C@H]2O)O[C@@H]9CO)O[C@@H]8CO)O[C@@H]7CO)O[C@@H]6CO)O[C@@H]5CO)O[C@@H]4CO)O[C@@H]3CO [γ-CD]	–	–	–	230 nM	24.5 ^c	–	1510 nM	–	-6.50 kcal/mol	300 nM	–	–
maltoheptaose [G7]	–	–	–	–	27.1 ^c	–	910 nM	-9.09 kcal/mol	-11.54 kcal/mol	70000 nM	–	–
maltohexaose [G6]	–	–	–	–	26.8 ^c	–	1850 nM	-8.61 kcal/mol	-12.98 kcal/mol	–	–	–
maltopentaose [G5]	–	–	–	200 nM	27.3 ^c	–	2440 nM	-8.30 kcal/mol	-13.94 kcal/mol	–	–	–
